Source: patent publication US7371776B2, “Methods and compositions for treating cancer” (Mars, Incorporated, priority 2004, dated 2008)

Legend:
Experiment in all cases: Crystal violet cellular proliferation assay
Format in all cases: cell-based, human
Details in all cases: 100 μg/mL
MCF-10A cells = system: MCF-10A cells
Experimental: (§1) The MCF-10A cell line (spontaneously immortalized, non-tumorigenic human mammary epithelial cell line with non-mutated p53) was maintained in F-12/DMEM medium supplemented with 5% horse serum (Gibco), 20 ng/mL EGF (Upstate Biotechnology Incorporated, Lake Placid, N.Y.), 10 μg/mL insulin (Biofluids, Rockville, Md.), and 500 ng/mL hydrocortisone. The same media were used for MCF-10A-ErbB2/Ras cells (Ciardiello, F. et al., Mol Carcinog., 6: 43-52. 1992) and MCF-10A-c-Myc cells (Sheen, J-H. et al., Mol. Cell. Biol., 22: 1819-1833, 2002).
(§2) One×10^3 cells per well were seeded in 96 well dishes (Coming Costar, Cambridge, Mass.). Primary cultures of HMECs, A1N4 and 184B5 cells were evaluated at two different cell densities (seeded at 1×10^3 and 2×10^3 per well). After 24 hours of cell attachment, cells in triplicate wells were treated with pentamer at a concentration of 100 μg/mL. The cells on the same plate were treated with corresponding controls: (i) media containing DMSO, and (ii) media with no additions.
(§3) Cells were treated for 1, 2, 3, 6, 8 and 10 days, but in some cases, the samples were collected at days 2, 3, 4, 7 and 10 post-treatment. Each treatment was conducted in triplicate. Samples were collected at each time point as follows: media was removed and 50 μL of crystal violet solution (0.1% of crystal violet in 0.1 M citric acid solution) was added to each well at room temperature and plates were incubated for 15 minutes, followed by washing with deionized water. Plates were dried at room temperature overnight. The following day, plates were destained by adding 100 μL of 0.1 M sodium citrate solution into each well. Plates were incubated for one hour. The optical density (OD) of samples was read at 550 nm on an Ultramark Microplate Imagining System (BioRad, Philadelphia, Pa.). The experiment was repeated twice resulting in an average of nine measurements per sample. Statistical significance was determined using the t test analysis.

MCF-10A-ErbB2/Ras cells = system: MCF-10A-ErbB2/Ras cells
Experimental: as §1, §2, §3

MCF-10A-c-Myc cells = system: MCF-10A-c-Myc cells
Experimental: as §1, §2, §3

Measured: pentamer-induced growth inhibition

Oc1cc(O)c2c(c1)O[C@H](c1ccc(O)c(O)c1)[C@H](O)[C@H]2c1c(O)cc(O)c2c1O[C@H](c1ccc(O)c(O)c1)[C@H](O)[C@H]2c1c(O)cc(O)c2c1O[C@H](c1ccc(O)c(O)c1)[C@H](O)[C@H]2c1c(O)cc(O)c2c1O[C@H](c1ccc(O)c(O)c1)[C@H](O)[C@H]2c1c(O)cc(O)c2c1O[C@H](c1ccc(O)c(O)c1)[C@H](O)C2 [pentamer, pentameric procyanidin]
equally resistant: all assays above
